Consider two molecules from patent US20080139613A1, “Chemical Compound” (AstraZeneca AB, priority 2006, published 2008).

Series [1] can be described thus: Rat pharmacokinetics after intravenous and oral dosing. In kind it is in vivo. To be noted: male Han Wistar rat; for clearance / half-life / Vd: Alderley Park Han Wistar, whole blood, intravenous 2 mg/kg; for clearance: blood clearance; for half-life: read-out: T½ (converted); for Vd: volume of distribution, read-out: Vdss; for F: bioavailability, oral 2 mg/kg vs intravenous 2 mg/kg. The procedure:
The rat pharmacokinetic (PK) parameters blood clearance (CL), volume of distribution (Vdss) and half life (t1/2) are calculated by determining the concentration (exposure) of test compound in whole blood samples taken from rats at various, defined time points subsequent to the intra-venous dosing (administration) of formulated test compound. The rat PK parameter bioavailability (F) is calculated by determining the concentration (exposure) of test compound in whole blood samples taken from rats at various, defined time-points subsequent to the oral dosing (administration) of formulated test compound and then by comparison of the ratio of the dose normalized total oral exposure (AUCpo) with the dose normalized total intra-venous exposure (AUCiv). Fraction absorbed (Fabs) is a secondary PK parameter that is often calculated from a knowledge of the clearance (CL) and bioavailability (F) of a test compound. The equation for determination of Fabs is as follows: […]
where Qh is the species liver blood flow (ml/min/kg).
For intravenous dosing, test compounds are dissolved in dimethyl acetamide (DMA) and then diluted with water such that the final test compound concentration is 1 mg/ml and the composition of the formulation is 40% DMA: 60% water. Male rats (n=2, Alderley Park Han Wistar strain) are then administered, via the tail vein, the test compound formulation at a dose volume of 2 ml/kg bodyweight such that each rat receives a total test compound dose of 2 mg/kg bodyweight. Blood sampling post IV dosing is via needle stick puncture of the tail vein and is serial in design: two rats have blood samples taken at 5, 20, 40, 90, 180, 360, 720 and 1440 (cardiac puncture) minutes after dosing.
For oral dosing, test compounds are dissolved in dimethyl sulphoxide (DMSO and then diluted with hydroxymethyl cellulose (HPMC) 0.5% w/v-Tween 80 (0.1% v/v) such that the final test compound concentration is 1 mg/ml and the composition of the formulation is 5% DMSO:95% HPMC/Tween. Male rats (n=2, Alderley Park Han Wistar strain) are then administered, via oral gavage, the test compound formulation at a dose volume of 2 ml/kg bodyweight such that each rat receives a total test compound dose of 2 mg/kg bodyweight. Blood sampling post oral dosing is via needle stick puncture of the tail vein and is serial in design: two rats have blood samples taken at 15, 30, 60, 120, 180, 360, 720 and 1440 (cardiac puncture) minutes after dosing. All blood samples are collected into lithium heparin tubes to prevent clotting. Aliqouts of blood are then diluted 1:1 with water and then frozen at −20° C. prior to being assayed to determine test compound concentration.
Calibration standard samples are prepared by addition of known amounts of test compound to blank diluted (1:1) blood samples. Calibration standards and unknown samples are then diluted and mixed with 3 parts ice-cold acetonitrile (containing suitable internal standard) to precipitate proteinaceous material. Following centrifugation, sample and calibration standard supernatants are analysed for test compound concentration by HPLC with MS/MS (triple quad mass spectrometry) detection. Quantification of test compound concentrations in the blood samples taken from the rats is achieved by reference to a standard curve constructed from the calibration standard samples.
Blood concentration—time point data and other information such as IV and PO dose is then entered into and analysed by a commercially available non-linear regression software program (WinNonLin version 4.1, Pharsight Corporation) to determine the rat PK parameters of interest (as described above).

The next series addresses T1, CCR5 (Homo sapiens, UniProt P51681).
T1 construct: After 21 to 34 days culture, the membranes were prepared from the cells; endogenous in cells; host or cells: Allo-T cells (allo-reactive T cell line from human PBMCs), membrane preparation
Kind of series: Displacement of radio-labelled CCR5 antagonist from Allo-T cell membranes. Format: binding. The conditions noted are these: membranes of human allo-reactive T cells; 2 nM [3H] CCR5 antagonist; 2 hours at room temperature. The procedure: The ability of the compound of the present invention to inhibit the binding of MIP-1β (CCL-4) was measured:
An allo-reactive T cell line was generated by exposure of human peripheral blood mononuclear cells (PBMCs) to L-DR4/B7 fibroblasts (immobilised with glutaraldehyde fixation and irradiation) and subsequent expansion with anti-CD3 and IL-2 for 14 days. The resultant Allo-T cells were frozen. When required, the cells were grown and re-challenged with irradiated HLA-DR4+ve PBMCs and expanded with anti-CD3 and IL-2. After 21 to 34 days culture, the membranes were prepared from the cells. These membranes were incubated in 96-well plates with 2 nM of the radio-labelled CCR5 antagonist [^3H]1-{(3R)-3-(3,5-difluorophenyl)-3-[4-(methylsulfonyl)phenyl]propyl}-4-(2-{[4-(methylsulfonyl)phenyl]sulfonyl}ethyl)piperidine and various concentrations of the compound of the invention for 2 hours at room temperature. The plates were then harvested onto GF/B filter plates (which had been pre-soaked soaked in 0.3% PEI containing 0.2% BSA for 10 min at 4° C.) using a Packard Unifilter harvester using 10 wash steps. The amount of [^3H]1-{(3R)-3-(3,5-difluorophenyl)-3-[4-(methylsulfonyl)phenyl]propyl}-4-(2-{[4-(methylsulfonyl)phenyl]sulfonyl}ethyl)piperidine retained on the filter plates was determined by scintillation counting. […]

T1 sequence (P51681 whole entry): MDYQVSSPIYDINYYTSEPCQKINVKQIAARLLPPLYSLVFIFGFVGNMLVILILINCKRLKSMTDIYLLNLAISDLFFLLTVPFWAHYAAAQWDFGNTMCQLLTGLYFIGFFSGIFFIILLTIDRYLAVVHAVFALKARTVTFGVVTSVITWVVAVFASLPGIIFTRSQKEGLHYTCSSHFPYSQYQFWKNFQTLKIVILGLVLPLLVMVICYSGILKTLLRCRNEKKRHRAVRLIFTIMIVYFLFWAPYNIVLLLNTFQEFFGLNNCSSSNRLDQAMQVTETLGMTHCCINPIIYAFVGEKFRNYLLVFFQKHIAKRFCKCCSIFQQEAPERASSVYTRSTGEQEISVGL

The IC50 is the point on the concentration scale where inhibition reaches its midpoint. A high value points to a need for much substance. With `CCc1nnc(C(C)C)n1C1CCN([C@H](C)C[C@@H](c2cc(F)cc(F)c2)C2CCN(S(C)(=O)=O)CC2)CC1` (single isomer, unassigned), in series [1], the clearance amounted to 18 mL/min/kg, the half-life is 4 h, the Vd was 4.1 L/kg and the F was 28%. This molecule also showed an IC50 on CCR5 of 6.5 nM.
On to `Cc1nnc(C(C)C)n1C1CCN(C(C)C[C@@H](c2cc(F)cc(F)c2)C2CCN(S(C)(=O)=O)CC2)CC1` (single isomer, unassigned) [Comparator Compound A], for which, in series [1], the clearance worked out at 37 mL/min/kg, the half-life was 2.7 h, the Vd was found to be 4.9 L/kg and the F is on record as 1%. The same molecule registered an IC50 at CCR5 of 32 nM.
